The values that follow come from patent publication US20250120928A1 (University of Maryland, Baltimore, priority 2021, published 2025).

pIC50: −log10 of the molar value.

Data set [1] deals with BMMØs. The class given is cell-based. On the procedure:
(§1) Three hours later, cells were stimulated with 100 ng/mL LPS. After 48 hours, cells were lifted using Versene and washed with cold PBS supplemented with 1% FBS and 0.4% 0.5 M EDTA (Quality Biological, Gaithersburg, MD). FcR blocking was performed with purified anti-mouse CD16/32 antibody (#101301) (Biolegend, San Diego, CA) prior to staining with Annexin V-FITC and propidium iodide kit (#640914) (BioLegend, San Diego, CA) for apoptosis and cell death. Cell staining was conducted according to BioLegend protocols for flow cytometry. Flow cytometry data were collected using a Becton Dickinson LSR II or Becton Dickinson Canto II flow cytometer. Flow plots and data processing was done using FCS Express 7 Flow Cytometry De Novo Software (De Novo, Glendale, CA).
as §1, with “After” for “Three hours later, cells were stimulated with 100 ng/mL LPS. After”

The subject of data set [2] is B cells (B220+) isolated from splenocytes. Kind of data set: Splenocyte apoptosis and cell death by AV/PI flow cytometry, B cells. The class given is cell-based. As for the experimental part: Splenocytes were isolated from spleens as previously described. Briefly, 5-12-week C57BL/6J female mice were euthanized and the spleen was isolated. The spleen was processed into single-cell suspensions using a 40 μm cell strainer and flushed with cold PBS supplemented with 1% FBS and 0.4% 0.5 M EDTA (Quality Biological, Gaithersburg, MD). Erythrocytes were lysed with ACK lysis buffer (Quality Biological, Gaithersburg, MD). […] Subsequently, splenocytes were stimulated with 100 ng/mL LPS for 24 hours. Splenocytes were then washed with cold PBS supplemented with 1% FBS and 0.4% 0.5 M EDTA and FcR blocked, as previously mentioned. Splenocytes were then stained with purified anti-mouse PE/Cyanine7 CD45R/B220 antibody (#103222) (BioLegend, San Diego, CA) for the B cell population. SAHA and SAHA-OH apoptosis and cell death were then assessed using the FITC-AV Apoptosis Detection Kit with PI via flow cytometry, as previously mentioned. Flow cytometry data were collected using a Cytex Aurora flow cytometer. Flow plots and data processing was done using FCS Express 7 Flow Cytometry De Novo Software (De Novo, Glendale, CA).

The test system of data set [3] is BMMØs. The data set can be described thus: Western blot analysis of acetyl-histone H3 and acetyl-α-tubulin. Conditions: 10 μM, unstimulated BMMØs, 4 and 9 hours. A general note: Immunoblotting shows a protein as a band on a membrane.
Data set [4] relates to spleen and liver. The data set can be described thus: Hematoxylin and eosin (H&E) histology of spleen and liver, LPS-induced endotoxemia mice. The class given is in vivo, male C57BL/6J mice. The following applies: 50 mg/kg i.p. 3 hours before 20 mg/kg LPS; 3 hours post-LPS. As for the experimental part:
The differences in tissue architecture of liver and spleen were assessed using the same cohort of mice as the cytokine analysis at 3 hours post-LPS administration. Prior to tissue harvest, whole-body perfusion was performed post-cardiac blood draw by slowly flushing 10 mL of 37° C. PBS through the left ventricle of the heart while a cut in the right atrium allowed for the flow of blood. The liver and spleen were harvested, placed into tissue cassettes (VWR, Radnor, PA), and fixed overnight in 10% buffered formalin (Sigma-Aldrich, St. Louis, MO). The following day, the organs were paraffin-embedded and sectioned into 5 μm slices. Slides were stained for H&E to define histological architecture using standard procedures.
The differences in tissue architecture of liver and spleens were assessed at 3 hours post-LPS administration. Prior to tissue harvest, whole body perfusion was performed by slowly flushing 10 mL of 37° C. PBS through the left ventricle of the heart while a cut in the right atrium allowed for the flow of blood. The liver and spleen were harvested, placed into tissue cassettes, and fixed overnight in 10% buffered formalin. The following day, the organs were paraffin embedded and sectioned in 5 μm slices. Slides were stained for H&E to define histological architecture using standard procedures.

In data set [5] the test system is LPS-stimulated bone marrow macrophages (BMMØ). The data set can be described thus: BMMØ cytokine secretion following LPS stimulation (ELISA, Luminex). The class given is cell-based, C57BL/6J mice. On the procedure:
Three hours later, cells were stimulated with 100 ng/mL LPS. After 48 hours, cell culture supernatants were collected and analyzed by enzyme-linked immunosorbent assays (ELISA) (BioLegend, San Diego, CA) to measure murine IL-6 and TNFα. MAGPIX Luminex bead-based multiplex ELISA (Thermo Fisher Scientific, Waltham, MA) measured for 7 various cytokines and chemokines, and data were analyzed using the Luminex xPONENT software (Millipore) as per manufacturer's instructions. The 7-plex panel included murine IFNβ, IL-10, IL-6, IL-1β, MCP-1 (CCL2), TNFα, and GROα (CXCL1).
After 48 hours, cell culture supernatants were collected and analyzed by enzyme-linked immunosorbent assays (ELISA) (BioLegend, San Diego, CA) to measure murine IL-6 and TNFα. MAGPIX Luminex bead-based multiplex ELISA (Thermo Fisher Scientific, Waltham, MA) measured for 7 various cytokines and chemokines, and data were analyzed using the Luminex xPONENT software (Milli-pore) as per manufacturer's instructions. The 7-plex panel included murine IFNβ, IL-10, TL-6, IL-1β, MCP-1 (CCL2), TNFα, and GROα (CXCL1).

Data set [6] concerns LPS-induced endotoxemia mouse model. Kind of data set: Plasma cytokine analysis in the LPS-induced endotoxemia mouse model. The class given is in vivo, male C57BL/6J mice. Conditions: 50 mg/kg i.p. 3 hours before 20 mg/kg LPS i.p.; blood 3 hours post-LPS. As for the experimental part:
Terminal cardiac blood draws from the left ventricle occurred 3 hours post LPS injections using a 25 g needle and 1 mL syringe into an EDTA coated lavender blood collection tube (BD Medical, Franklin Lakes, NJ). Blood samples were centrifuged at 1000×g for 10 minutes within 30 minutes of collection. Plasma was extracted and diluted 10,000-fold for ELISA IL-6 measurement and diluted 10-fold for TNFα measurements.
Terminal cardiac blood draws from the left ventricle occurred 3 hours post LPS injections using a 25 g needle and 1 mL syringe into an EDTA coated lavender blood collection tubes (BD Medical, Franklin Lakes, NJ). Blood samples were centrifuged at 1000×g for 10 minutes within 30 minutes of collection. Plasma was extracted and diluted 10,000-fold for ELISA IL-6 measurement and diluted 10-fold for TNFα measurements. MAGPIX Luminex bead-based multiplex ELISA (Thermo Fisher Scientific, Waltham, MA) of mouse plasma (diluted 100-fold) measured for 26 various cytokines and chemokines and data was analyzed using the Luminex xPONENT software (Millipore) as per manufacturer's instructions. The 26-plex panel include murine IL-1β, IL-2, IL-4, IL-5, IL-6, IL-9, IL-10, IL-12p70, IL-13, IL-17A (CTLA-8), IL-18, IL-22, IL-23, IL-27, GM-CSF, IFNγ, TNFα, MCP-1 (CCL2), MIP-1α (CCL3), MIP-10 (CCL4), RANTES (CCL5), MCP-3 (CCL7), Eotaxin (CCL11), GROα (CXCL1), MIP-2a (CXCL2), and IP-10 (CXCL10).

Data set [7] has as its system T cells (CD3+) from splenocytes. The data set can be described thus: Splenocyte apoptosis and cell death by AV/PI flow cytometry, T cells. The class given is cell-based. The following applies: concentrations up to 30 μM.
The test system of data set [8] is HDAC1, 2, 3. Conditions: comparison value for Tubastatin A; read-out: IC50 against HDAC1, 2, 3; cited from earlier work.
The mark [9] stands for this setting: 0-30 μM for 3 hours, then LPS 100 ng/mL 48 hours, ELISA.

Consider `O=C(CCCCCCC(=O)Nc1ccccc1)NO` [SAHA, N^1-hydroxy-N^8-phenyloctanediamide, reference compound], for which, in data set [1] (0-30 μM), the “apoptosis (AV+/PI−) over concentration” value was “apoptosis induction” and the “viability (AV−/PI−) over concentration” value is given as “concentration-dependent viability reduction”. In data set [1] (10 μM, 48 hours), the “apoptosis (AV+/PI−)” value stood at 96.8% and the “cellular viability (AV−/PI−)” value came to 3.1%. In addition, the “toxicity profile for the B cell population” value in data set [2] (0-30 μM) is reported as “concentration-dependent toxicity profiles”. In addition, in data set [2] (10 μM, 24 hours), the “B cell death (AV+/PI+)” value worked out at 54.8% and the “B cell viability (AV−/PI−)” value is given as 9.5%. The “acetylation of α-tubulin” value in data set [3] is reported as “similarly resulted in the acetylation”. Moreover, the “spleen tissue architecture (H&E)” value in data set [4] is “moderate histological disorganization”. In data set [5] (setting [9]), the IL-6 cytokine secretion result is “concentration-dependent reduction” and the TNFα cytokine secretion entry was “concentration-dependent reduction”. In data set [5] (10 μM, 3 hours before 48-hour LPS), the MCP-1 cytokine secretions entry was “non-significantly affected”. For the same compound, the “secretion of IL-10” value in data set [5] (10 μM, 3 hours before 48-hour LPS, Luminex, SAHA compared to SAHA-OH) is “increased secretion”. In data set [6], the “reduction of plasma IL-6” value was “about 50%” and the “reduction of plasma TNFα” value is given as “about 50%”. In data set [7], the “toxicity for the T cell population” value is reported as “minimal toxicity”.
What is called pIC50 is the IC50 on a negative log10 scale, so that one unit is a factor of ten. As for `CN1CCc2c(c3ccccc3n2Cc2ccc(C(=O)NO)cc2)C1` [Tubastatin A], the negative-log IC50 (pIC50) in data set [8] is […].
